PubChem BioAssay (NCI)
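Briefly, cells in 96-well plates were exposed to five compound concentrations for 48 h, and endpoints were estimated by linear interpolation. The concentration for 50% growth inhibition is given as GI50. TGI is the concentration that stops growth completely.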

Experiments:
Assay in all cases: inhibition of tumour cell growth, NCI panel, 48 h
[1] = test system: 786-0 renal
[2] = test system: A549 NSCLC
[3] = test system: CAKI-1 renal
[4] = test system: MOLT-4 leukemia
[5] = test system: OVCAR-4 ovarian
[6] = test system: SK-MEL-5 melanoma
[7] = test system: UACC-257 melanoma
[8] = test system: UO-31 renal

Structure (SMILES): COc1ccc2[nH]c3c4c(c5cc(C(C)(C)C)ccc5c3c2c1)C(=O)N(c1ccccc1)C4=O
- TGI [1]: > 100 µM
- TGI [2]: > 100 µM
- TGI [3]: > 100 µM
- TGI [4]: > 100 µM
- TGI [5]: > 100 µM
- TGI [6]: > 100 µM
- TGI [7]: > 100 µM
- TGI [8]: > 100 µM

Structure (SMILES): c1cncc(C2c3[nH]c4ccccc4c3CCN2CCCN2CCCCC2)c1 (stereo not drawn)
- TGI [1]: > 100 µM
- TGI [2]: > 100 µM
- TGI [3]: > 100 µM
- TGI [4]: > 100 µM
- TGI [5]: > 100 µM
- TGI [6]: > 100 µM
- TGI [7]: > 100 µM
- TGI [8]: > 100 µM

Structure (SMILES): CC1=CC(=O)C(C)(C2=NC(C)(C)CO2)c2ccccc21 (stereo not drawn)
- TGI [1]: > 100 µM
- TGI [2]: > 100 µM
- TGI [3]: > 100 µM
- TGI [4]: > 100 µM
- TGI [5]: > 100 µM
- TGI [6]: > 100 µM
- TGI [7]: > 100 µM
- TGI [8]: > 100 µM

Structure (SMILES): CC[O-].CC[O-].[O-]c1ccccc1C=Nc1ccccc1.[O-]c1ccccc1C=Nc1ccccc1.[Ti+4]
- GI50 [1]: > 100 µM
- TGI [1]: > 100 µM
- GI50 [2]: > 100 µM
- TGI [2]: > 100 µM
- GI50 [3]: 85.1 µM
- TGI [3]: > 100 µM
- GI50 [4]: 28.4 µM
- TGI [4]: > 100 µM
- GI50 [5]: > 100 µM
- TGI [5]: > 100 µM
- GI50 [6]: 45.5 µM
- TGI [6]: > 100 µM
- GI50 [7]: > 100 µM
- TGI [7]: > 100 µM
- GI50 [8]: > 100 µM
- TGI [8]: > 100 µM

Structure (SMILES): CCOC(=O)C1Cc2c(ccc(OC)c2OC)C(=O)C1N (stereo not drawn)
- TGI [1]: > 100 µM
- TGI [2]: > 100 µM
- TGI [3]: > 100 µM
- TGI [4]: > 100 µM
- TGI [5]: > 100 µM
- TGI [6]: > 100 µM
- TGI [7]: > 100 µM
- TGI [8]: > 100 µM

Structure (SMILES): CC(=O)CC(=O)N(CCN(C(=O)CC(C)=O)c1ccccc1)c1ccccc1
- TGI [1]: > 100 µM
- TGI [2]: > 100 µM
- TGI [3]: > 100 µM
- TGI [4]: > 100 µM
- TGI [5]: > 100 µM
- TGI [6]: > 100 µM
- TGI [7]: > 100 µM
- TGI [8]: > 100 µM

Structure (SMILES): CN1C(=O)n2c(nc3ccccc32)C(N=[N+]=[N-])(N=[N+]=[N-])C1=O (stereo not drawn)
- TGI [1]: > 100 µM
- TGI [2]: > 100 µM
- TGI [3]: > 100 µM
- TGI [4]: > 100 µM
- TGI [5]: > 100 µM
- TGI [6]: > 100 µM
- TGI [7]: > 100 µM
- TGI [8]: > 100 µM

Structure (SMILES): O=C1c2ccccc2C(=O)N1/N=C\c1ccc(Br)cc1
- GI50 [1]: > 100 µM
- TGI [1]: > 100 µM
- GI50 [2]: > 100 µM
- TGI [2]: > 100 µM
- TGI [3]: > 10 µM
- GI50 [4]: > 100 µM
- TGI [4]: > 100 µM
- GI50 [5]: > 100 µM
- TGI [5]: > 100 µM
- GI50 [6]: > 100 µM
- TGI [6]: > 100 µM
- GI50 [7]: > 100 µM
- TGI [7]: > 100 µM
- GI50 [8]: > 100 µM
- TGI [8]: > 100 µM

Structure (SMILES): CCOC(=O)C12CCCC1(O)N(NC(=O)c1cccc(Cl)c1)C(C)=C2C(=O)OC (stereo not drawn)
- TGI [1]: > 100 µM
- TGI [2]: > 100 µM
- TGI [3]: > 100 µM
- TGI [4]: > 100 µM
- TGI [5]: > 100 µM
- TGI [6]: > 100 µM
- TGI [7]: > 100 µM
- TGI [8]: > 100 µM

Structure (SMILES): CCC[CH2][Sn]1([CH2]CCC)[O]C(c2ccccn2)S(=O)(=O)[O]1 (stereo not drawn)
- GI50 [1]: 2.12 µM
- TGI [1]: 4.11 µM
- GI50 [2]: 20 µM
- TGI [2]: 34.3 µM
- GI50 [3]: 1.58 µM
- TGI [3]: 3.63 µM
- GI50 [4]: 2.84 µM
- TGI [4]: 7.51 µM
- GI50 [5]: 6.86 µM
- TGI [5]: 20.1 µM
- GI50 [6]: 12.5 µM
- TGI [6]: 25 µM
- GI50 [7]: 1.79 µM
- TGI [7]: 3.29 µM
- GI50 [8]: 13.6 µM
- TGI [8]: 26.6 µM
